Results from US10597542B2, “Methods of applying active components” (HONEYWELL INTERNATIONAL INC., priority 2011, dated 2020).

Test: Solubility of material samples covered with tr-1233zd or cis-1233zd in vials (Examples 8-13)
Conditions: for Amount of heparin dissolved: remained clear overnight
Description: (§1) Test samples of commercial acrylic plastic sheet cut into ¼″×2″ piece were placed into 20 cc vials with septum screw cap. Solvents (tr-1233zd & cis-1233zd) were slowly added by a syringe to cover the entire plastic sample inside the vial. The purpose was to observe if any degradation happens to the plastic.
as §1, with “high impact styrene” for “acrylic”
Test samples of commercial acrylonitrile-butadiene-styrene (ABS) sheet cut into ¼″×2″ piece were placed into 20 cc vials with septum screw cap. Solvents (tr-1233zd & cis-1233zd) were slowly added by a syringe to cover the entire plastic sample inside the vial.
The experiment in Example 8 is repeated with commercial polycarbonate material.
The experiment of Example 8 was repeated with commercial Dow Polaroid™ Au-608-B acrylic material. This material is used in various coatings.
The experiment of Example 8 was repeated with blood anti-coagulant material Heparin, which is used as a coating in medical devices.

Substance: Heparin
- Solubility / effect of solvent on the material: None of the solvents could dissolve the material
- Amount of heparin dissolved (cis-1233zd with 2 wt % methanol): 1.19 wt %
- Amount of heparin dissolved (tr-1233zd with 2 wt % methanol): 0.794 wt %
